In US8410141B2, “Insecticidal arylpyrrolines” (Bayer Cropscience AG, priority 2009, dated 2013):

Columns and labels:
Format in all cases: in vivo
[1] = test system: Two-Spotted Spider Mite (Tetranychus urticae); test: Test against two-spotted spider mite (Tetranychus urticae), spray; settings: 100 ppm; sprayed on kidney bean; adult mites; after 7 days
Experimental: (§1) Unless not mentioned otherwise, the test solutions were prepared as follows:
(§2) Containing as solvent: Dimethylformamide, 3 parts by weight; and as emulsifier: Polyoxyethylene alkyl phenyl ether, 1 part by weight. To prepare the test solution, 1 part by weight of an active compound is mixed with the above-mentioned amount of solvent containing the above-mentioned amount of emulsifier, and the mixture is diluted with water to the desired concentration.
50 to 100 adult two-spotted spider mites were inoculated onto the leaves of kidney beans at the two-true leaf stage, which plant had been cultivated in a pot having a diameter of 6 cm. After one day, test solution at the appropriate concentration was sprayed thereon in a sufficient amount using a spray gun. After the spraying, the plant pot was placed inside a greenhouse, and after 7 days, the acaricidal activity was calculated. An acaricidal activity of 100% means that all mites were killed, whereas an acaricidal activity of 0% means that no mite was killed.

[2] = test system: Cucurbit Leaf Beetle (Aulacophora femoralis); test: Test against cucurbit leaf beetle (Aulacophora femoralis), leaf immersion; settings: 100 ppm; cucumber leaves immersed; second-instar larvae; after 7 days
Experimental: as §1, §2
Cucumber leaves were immersed in the test solution at the appropriate concentration, and the leaves were dried in air. The leaves were then placed in a plastic cup containing sterilized black soil, and five second-instar larvae of cucurbit leaf beetle were released therein. The plastic cup was placed in a temperature-controlled chamber at 25° C. After 7 days, the number of dead larvae was counted, and thus the insecticidal activity was calculated. An insecticidal activity of 100% means that all beetles were killed, whereas an insecticidal activity of 0% means that no beetle was killed.

[3] = test system: Tobacco Cutworm (Spodoptera litura) Larvae; test: Test against tobacco cutworm (Spodoptera litura) larvae, leaf immersion; settings: 100 ppm; sweet potato leaves immersed; third-instar larvae; after 7 days
Experimental: as §1, §2
The leaves of sweet potato were immersed in the test solution at the appropriate concentration, and the leaves were dried in air. The leaves were then placed in a petri dish having a diameter of 9 cm, and ten third-instar larvae of tobacco cutworm were released therein. The petri dish was placed in a temperature-controlled chamber at 25° C. After 2 days and 4 days sweet potato leaves were additionally added. After 7 days, the number of dead larvae was counted to calculate the insecticidal activity. An insecticidal activity of 100% means that all larvae were killed, whereas an insecticidal activity of 0% means that no larva was killed. In the current test, the results of two petri dishes for each partition were averaged.

Musca domestica = Musca domestica test; settings: 100 ppm; sponge with sugar and compound solution; adults; after 2 days
Experimental: Solvent: dimethyl sulfoxide
To produce a suitable preparation of active compound, 10 mg of active compound are dissolved in 0.5 ml solvent, and the concentrate is diluted with water to the desired concentration. Prior to the assay, a piece of kitchen sponge is soaked with a mixture of sugar and compound solution and placed into a container. 10 adults (Musca domestica) are placed into the container and closed with a perforated lid. After 2 days mortality in % is determined. 100% means that all the flies have been killed; 0% means that none of the flies have been killed.

[4] = test system: Tobacco Cutworm (Spodoptera litura) Larvae; test: Test against tobacco cutworm larvae, root systemicity; settings: 100 ppm; broccoli seedling roots dipped 3 days; second-instar larvae; after 4 days
Experimental: as §1, §2
The roots of seedling of broccoli at 1.2 leaf stage were dipped into the test solution at the appropriate concentration. After 3 days, the leaves were cut and placed in a petri dish having a diameter of 9 cm. And then five second-instar larvae of tobacco cutworm were released therein. The petri dish was placed in a temperature-controlled room at 25° C. After 4 days, the number of dead larvae was counted, to calculate the insecticidal activity. An insecticidal activity of 100% means that all larvae were killed, whereas an insecticidal activity of 0% means that no larva was killed.

SMILES | acaricidal activity rate [1] [%] | insecticidal activity [2] [%] | insecticidal activity [3] [%] | mortality (Musca domestica) [%] | insecticidal activity [4] [%]
N#Cc1cc(C2=NCC(c3cc(Cl)cc(Cl)c3)(C(F)(F)Cl)C2)ccc1-n1cncn1 (stereo not drawn) [1-506] | 100 | 100 | 100 |  | 
N#Cc1cc(C2=NCC(c3cccc(C(F)(F)F)c3F)(C(F)(F)F)C2)ccc1-n1cncn1 (stereo not drawn) [1-19] | 100 | 100 | 100 | 90 | 
CCC(=O)NCc1ccc(C2=NCC(c3cc(C(F)(F)F)nc(C(F)(F)F)c3)(C(F)(F)F)C2)cc1Br (stereo not drawn) [2-2733, N-(4-{3-[2,6-bis(trifluoromethyl)pyridin-4-yl]-3-(trifluoromethyl)-3,4-dihydro-2H-pyrrol-5-yl}-2-bromobenzyl)propanamide] | 100 | 100 | 100 |  | 
CSCC(=O)NCc1ccc(C2=NCC(c3cc(C(F)(F)F)nc(C(F)(F)F)c3)(C(F)(F)F)C2)cc1Br (stereo not drawn) [2-2737] | 100 | 100 | 100 |  | 
FC(F)(F)c1cc(C(F)(F)F)cc(C2(C(F)(F)F)CN=C(c3cnc(-n4cncn4)c(Cl)c3)C2)c1 (stereo not drawn) [1-491] |  | 100 | 100 |  | 
O=[N+]([O-])c1cc(C2=NCC(c3cc(Cl)c(Cl)c(Cl)c3)(C(F)(F)F)C2)ccc1-n1cncn1 (stereo not drawn) [1-35] | 100 | 100 | 100 |  | 
CCC(=O)NCc1ccc(C2=NCC(c3cc(Cl)nc(Cl)c3)(C(F)(F)F)C2)cc1C(F)(F)F (stereo not drawn) [2-2151] | 100 | 100 | 100 |  | 
N#Cc1cc(C2=NCC(c3cc(Cl)cc(Cl)c3Cl)(C(F)(F)F)C2)ccc1-n1cncn1 (stereo not drawn) [1-488] | 100 | 100 | 100 |  | 
CC(=O)NCc1ccc(C2=NCC(c3cc(C(F)(F)F)nc(C(F)(F)F)c3)(C(F)(F)F)C2)cc1Br (stereo not drawn) [2-2732] | 100 | 100 | 100 |  | 
O=C(CC(F)(F)F)NCc1ccc(C2=NCC(c3cc(Cl)c(Cl)c(Cl)c3)(C(F)(F)F)C2)cc1 (stereo not drawn) [2-170] | 100 | 100 | 100 |  | 
CC(=O)NCc1ccc(C2=NCC(c3cc(Cl)c(Cl)c(Cl)c3)(C(F)(F)F)C2)cc1 (stereo not drawn) [2-168] | 100 | 100 | 100 |  | 
Cc1cc([N+](=O)[O-])cc(C2(C(F)(F)F)CN=C(c3ccc(-n4cncn4)c(C#N)c3)C2)c1 (stereo not drawn) [1-180] | 100 |  |  |  | 
CCC(=O)NCc1ccc(C2=NCC(c3cc(Cl)c(Cl)c(Cl)c3)(C(F)(F)F)C2)cc1 (stereo not drawn) [2-169] | 100 | 100 | 100 |  | 
N#Cc1cc(C2=NCC(c3cc(C(F)(F)F)ccc3F)(C(F)(F)F)C2)ccc1-n1cncn1 (stereo not drawn) [1-482] | 100 | 100 | 100 |  | 
CCC(=O)NC(C)c1ccc(C2=NCC(c3cc(C(F)(F)F)nc(C(F)(F)F)c3)(C(F)(F)F)C2)cc1 (stereo not drawn) [2-2872] |  |  | 100 |  | 100
FC(F)(F)C1(c2cc(Cl)nc(Cl)c2)CN=C(c2cnc(-n3cncn3)c(Cl)c2)C1 (stereo not drawn) [1-490] |  | 100 | 100 |  | 
N#Cc1cc(C2=NCC(c3ccc(F)c(C(F)(F)F)c3)(C(F)(F)F)C2)ccc1-n1cncn1 (stereo not drawn) [1-4] | 100 | 100 | 100 |  | 100
N#Cc1cc(C2=NCC(c3ccnc(C(F)(F)C(F)(F)F)c3)(C(F)(F)F)C2)ccc1-n1cncn1 (stereo not drawn) [1-156] | 100 | 100 | 100 |  | 
N#Cc1cc(C2=NCC(c3cc(Br)c4c(c3)OC(F)(F)O4)(C(F)(F)F)C2)ccc1-n1cncn1 (stereo not drawn) [1-496] | 100 | 100 | 100 |  | 

SMILES | acaricidal activity rate [1] [%] | insecticidal activity [2] [%] | insecticidal activity [3] [%] | mortality (Musca domestica) [%] | insecticidal activity [4] [%]
FC(F)(F)C1(c2cc(Cl)c(Cl)c(Cl)c2)CN=C(c2ccc(-n3cncn3)cc2)C1 (stereo not drawn) [1-27] | 100 | 100 | 100 |  | 
N#Cc1cc(C2=NCC(c3cc(Cl)c(Br)c(Cl)c3)(C(F)(F)F)C2)ccc1-n1cncn1 (stereo not drawn) [1-15] | 100 | 100 | 100 |  | 
Cc1cc(C2=NCC(c3cc(C(F)(F)F)cc(C(F)(F)F)c3)(C(F)(F)F)C2)ccc1CNC(=O)OC(C)(C)C (stereo not drawn) [2-548] | 100 | 100 | 100 |  | 
FC(F)(F)C1(c2cc(Cl)c(Cl)c(Cl)c2)CN=C(c2ccc(-n3cncn3)nc2)C1 (stereo not drawn) [1-110] | 100 | 100 | 100 |  | 
N#Cc1cc(C2=NCC(c3cncc(C(F)(F)F)c3)(C(F)(F)F)C2)ccc1-n1cncn1 (stereo not drawn) [1-481] |  | 100 | 100 |  | 
N#Cc1cc(C2=NCC(c3cc(C(F)(F)F)cc(Cl)n3)(C(F)(F)F)C2)ccc1-n1cncn1 (stereo not drawn) [1-84] | 100 | 100 | 100 |  | 100
O=C(CC(F)(F)F)NCc1ccc(C2=NCC(c3cc(C(F)(F)F)cc(C(F)(F)F)c3)(C(F)(F)F)C2)cc1 (stereo not drawn) [2-648] | 100 | 100 | 100 |  | 100
N#Cc1cc(C2=NCC(c3cc(Cl)nc(C(F)(F)F)c3)(C(F)(F)F)C2)ccc1-n1cncn1 (stereo not drawn) [1-492] | 100 | 100 | 100 |  | 100
Cc1cc(C2=NCC(c3cc(Cl)c(Cl)c(Cl)c3)(C(F)(F)F)C2)ccc1CN (stereo not drawn) [2-76] |  |  | 100 |  | 
CS(=O)(=O)CC(=O)NCc1ccc(C2=NCC(c3cc(C(F)(F)F)nc(C(F)(F)F)c3)(C(F)(F)F)C2)cc1Br (stereo not drawn) [2-2739] | 100 | 100 | 100 |  | 
N#Cc1cc(C2=NCC(c3ccnc(Cl)c3)(C(F)(F)F)C2)ccc1-n1cncn1 (stereo not drawn) [1-484] | 100 | 100 |  |  | 
FC(F)(F)C1(c2cc(Cl)c(Cl)c(Cl)c2)CN=C(c2ccc(-n3cncn3)c(Br)c2)C1 (stereo not drawn) [1-31] | 100 | 100 | 100 |  | 
N#Cc1cc(C2=NCC(c3cc(OC(F)F)cc(C(F)(F)F)c3)(C(F)(F)F)C2)ccc1-n1cncn1 (stereo not drawn) [1-497] |  | 100 | 100 |  | 100
N#Cc1cc(C2=NCC(c3cc(C(F)(F)F)cc(C(F)(F)F)c3)(C(F)(F)F)C2)cnc1-n1cncn1 (stereo not drawn) [1-494] |  | 100 | 100 |  | 
FC(F)(F)c1cc(C2=NCC(c3cc(Cl)c(Cl)c(Cl)c3)(C(F)(F)F)C2)ccc1-n1cncn1 (stereo not drawn) [1-34] |  | 100 | 100 |  | 
Cc1ccc(C2(C(F)(F)F)CN=C(c3ccc(-n4cncn4)c(C#N)c3)C2)cc1[N+](=O)[O-] (stereo not drawn) [1-174] | 100 |  |  |  | 
CCC(=O)NCc1ccc(C2=NCC(c3cc(C(F)(F)F)cc(C(F)(F)F)c3)(C(F)(F)F)C2)cc1 (stereo not drawn) [2-647] | 100 | 100 | 100 |  | 100
Cc1cc(C2=NCC(c3cc(C(F)(F)F)cc(C(F)(F)F)c3)(C(F)(F)F)C2)ccc1CN (stereo not drawn) [2-547] |  |  | 100 |  | 
